From patent US6362176B1, “Compositions, methods and kits for treating rheumatoid arthritis” (Super Gen, Inc., priority 1998, dated 2002)

Tests used:
[1] = system: individuals with RA; settings: cited from earlier work
[2] = cited from earlier work
[3] = system: CLL; hairy cell leukemia; settings: cited from earlier work
[4] = system: RA patients; settings: bi-weekly pentostatin, months 1 and 3; cited from earlier work
[5] = system: RA patients; test: pentostatin monotherapy on a monthly schedule (inventor); type: in vivo, human; settings: treatment continued past the flare
Excerpt: When the treatment was continued past the flare, approximately a third of the patients entered a pharmaceutical free remission for a period of weeks or months.

[6] = 4 mg/M^2 once a week x3 or 4 followed by once every three to four weeks

| Compound | patients remaining on methotrexate for two or more years ([1]; in vivo) | time to worsening of RA after monotherapy is discontinued ([1]; in vivo) | patients expected to obtain at least partial relief ([1]; methotrexate monotherapy, recent studies) | individuals still on the drug five years after starting ([1]; methotrexate monotherapy) | individuals with RA getting some favorable response ([1]; methotrexate monotherapy) | patients entering remission as defined by ACR criteria ([1]; methotrexate monotherapy) | time of peak serum concentrations ([2]; intramuscular administration) | absorption ([2]; parenteral administration) | efficacy in hairy cell leukemia [3, 6] | toxicity at even lower doses [3, 6] | toxicity at lower doses ([3]; 5 mg/M^2 on two successive days) | clinical response in CLL ([3]; doses of 1.0 to 13.5 mg/kg) | toxicity at very high doses ([3]; very high doses) | patients with significant flare (duration of morning stiffness, tender and swollen joints) [4] | patients entering a pharmaceutical free remission for weeks or months [5] |
| --- | --- | --- | --- | --- | --- | --- | --- | --- | --- | --- | --- | --- | --- | --- | --- |
| CN(Cc1cnc2nc(N)nc(N)c2n1)c1ccc(C(=O)N[C@@H](CCC(=O)O)C(=O)O)cc1 [methotrexate, N-[4-[[(2,4-diamino-6-pteridinyl)methyl]methylamino]benzoyl]-L-glutamic acid] | Up to 70% | three to six | about 70% | over 50% | Approximately 70% | less than 30% | thirty to sixty | generally complete absorption | – | – | – | – | – | – | – |
| OC[C@H]1O[C@@H](n2cnc3c2NC=NC[C@H]3O)C[C@@H]1O [pentostatin, 2′-deoxycoformycin] | – | – | – | – | – | – | – | – | effective in inducing remission in hairy cell leukemia | no toxicity | mild with transient leukopenia, nausea and lethargy or somnolence | cytoreduction but no clinically meaningful remission in CLL | substantial and may include renal failure secondary to acute tubular necrosis, central nervous system toxicity (seizures), pulmonary edema, and keratoconjunctivitis | 9 of 11 | approximately a third |
